Data set [1] concerns retinal ganglion cells (RGCs). Kind of data set: RNA-sequencing of FAC sorted RGCs, differential gene expression. Format: in vivo, mouse. To be noted: for RGC gene expression changes (RNA-seq): D2 mice, NAM 550 mg/kg/day in drinking water from 6-month, 9-month RGCs. The procedure: Prior to cell collection, all surfaces and volumes were cleaned with 70% ethanol and RNaseZap (ThermoFisher Scientific) solution followed by dH2O. Mice were euthanized, eyes enucleated and placed immediately into ice-cold HBSS. Retinas were dissected from the eyes (4- or 9-month of age, no axon degeneration confirmed by PPD staining, data not shown) in HBSS on ice and placed directly into 100 μL, of a custom HBSS (Gibco), dispase (5 U/mL) (Stemcell Technologies), DNase 1 (2000 U/mL) (Worthington Biochemical) and SUPERase (1 U/μL) (ThermoFisher Scientific) solution. All retinas were from eyes that had no glaucomatous axon degeneration by PPD staining and analysis (see optic nerve assessment below). Retinas were incubated for 20 mins at 37° C. and shaken at 350 RPM in an Eppendorf Thermomixer R followed by gentle trituration using a 200 μL pipette. Samples were blocked in 2% BSA, SUPERase (1 U/μL) in HBSS, and stained with conjugated antibodies against Cd11b, Cd11c, Cd34, Cd45.2, GFAP, Thy1.2 as well as DAPI. This cocktail allowed other retina cell types to be accurately removed during FACS.
FACS was performed on a FACSAria (BD Biosciences). Thy1.2^+ (and negative for all other markers) RGCs were sorted into 300 μL buffer RLT+1% β-ME, vortexed and frozen at −80° C. until further processing.
[…] RGC samples were defrosted on ice and homogenized by syringe in RLT Buffer (total volume 300 μL). Total RNA was isolated using RNeasy micro kits according to manufacturer's protocols (Qiagen) including the optional DNase treatment step, and quality was assessed using an Agilent 2100 Bioanalyzer. The concentration was determined using Ribogreen Assay (Invitrogen). […]
Library size produced was analyzed using qPCR using the Library Quantitation kit/Illumina GA/ABI Prism (Kapa Biosystems). Libraries were barcoded, pooled, and sequenced 6 samples per lane on a HiSeq 2500 sequencer (illumina) giving a depth of 30-35 million reads per sample.
Samples were subjected to quality control analysis by a custom quality control python script. Reads with 70% of their bases having a base quality score ≥30 were retained for further analysis. Read alignment was performed using TopHat v 2.0.7 (Kim et al., Genome Biol 14, R36, 2013) and expression estimation was performed using HTSeq (Anders et al., Bioinformatics 31, 166-169, 2015) with supplied annotations and default parameters against the DBA/2J mouse genome (build-mm10). […]
Differential gene expression analysis between groups was performed using edgeR v 3.10.5 (Robinson et al., Bioinformatics 26, 139-140, 2010) following, batch correction using RUVSeq, the removal of outlier samples and lowly expressed genes by removing genes with less than five reads in more than two samples. […]

Data set [2] relates to ganglion cell layer cells (GCL cells). Kind of data set: Whole retina explant culture (axotomy culture model), DAPI nuclei. Format: cell-based, mouse. From the text: Mice were euthanized, eyes enucleated and placed immediately into ice-cold HBSS. Retinas were dissected from the eyes in HBSS on ice, flat-mounted with the ganglion cell layer up on a cell culture insert (Millipore), and submerged in tissue culture media containing Neurobasal-A, 1% penicillin-streptomycin (10000 U/mL), 1% glutamine (100×), 1% N-2 (100×) and 1% B-27 (50×) (all ThermoFisher Scientific).
For drug treated retinas tissue culture media was made as above and supplemented with one of the following compounds (all Sigma unless otherwise): β-NAD, NAM (PanReac AppliChem), β-NMN. Retinas were incubated in 6-well plates at 37° C. and 4% CO2 for 5 days before being fixed in 4% PFA and stained with DAPI. (For untreated “Day 0” controls, retinas were dissected and placed straight into 4% PFA.) Retinas were imaged on a Zeiss AxioObserver.

The next data set deals with DBA/2J (D2) mice. The data set is described as follows: Clinical phenotyping: intraocular pressure (IOP) and iris disease in D2 mice. Format: in vivo, mouse. The protocol: IOP elevation in D2 mice is subsequent to a pigment dispersing iris disease. In all experiments, the progression of the iris disease and intraocular pressure in mutant or drug-treated mice was compared to control D2 mice as previously described (John et al., Invest Ophthalmol Vis Sci 39, 951-962, 1998). In each experiment, iris disease and intraocular pressure were assessed.
Iris disease was assessed at two-month intervals starting at 6 months of age until experiment completion.
Intraocular pressure was measured at 45-day intervals beginning at 8.5-9 month until experiment completion.

Data set [3] deals with mouse model for EAE, ALS, RRMS. To be noted: US 2006-0211744 A1, RRMS mouse models; cited from earlier work.
The next data set has as its system PARP. The data set is described as follows: PARP activation (pan-PARP immunostaining) in D2 retinas. Format: in vivo, mouse. The conditions noted are these: NAM 550 mg/kg/day. The procedure:
(§1) For immunofluorescence staining, mice were euthanized by cervical dislocation, their eyes enucleated and placed in 4% PFA ON. Retinas were dissected and flat-mounted onto slides, permeabilized with 0.1% Triton-X for 15 mins, blocked with 2% BSA in PBS and stained ON at RT in primary antibody (see below for list of antibodies).
(§2) After primary antibody incubation, retinas were washed 5 times in PBS, stained for 4 hrs at RT with secondary antibody. Slides were then washed a further 5 times with PBS, stained with DAPI for 15 mins, mounted with fluoromount, coverslipped and sealed with nail-polish.
(§3) For retinal sections, eyes were cryoprotected in 30% sucrose ON, frozen in OCT and cryosectioned at 18 μm. Slides were warmed to room temperature and the procedure above was followed. Retinas were imaged on a Zeiss AxioObserver for low resolution counts. Retinal sections were imaged on a Leica SP8 far higher resolution images.

The conditions of data set [4]: cited from earlier work.
Data set [5] concerns retinal ganglion cells (RGCs). The data set is described as follows: RGC soma loss (RBPMS staining) in D2 glaucoma. Format: in vivo, mouse. The conditions noted are these: D2 mice; NAM 550 mg/kg/day or pyruvate 500 mg/kg/day. The protocol:
as §1, §2, §3

The mark [6] stands for this setting: RGCs, q<0.05, NAM 550 mg/kg/day.
Setting [7] is: axotomized retinas in culture, 5 days.

Each structure is given as a SMILES string. “Also recorded” adds a separate entry of the source.

In the case of `NC(=O)c1cccnc1` [NAM, nicotinamide], the “RGC gene expression changes (RNA-seq)” value in data set [1] is “prevented even the earliest molecular signs of glaucoma in the majority of treated eyes; also recorded: prevented the vast majority of age-related gene expression changes; also recorded: returned to normal; also recorded: molecularly similar to controls; also recorded: molecularly similar to both young and age-matched no glaucoma control RCGs; also recorded: prevents transcriptome imbalances and OXPHOS imbalances; also recorded: prevents age- and disease-related gene expression changes”. In addition, the “RGC gene expression changes (RNA-seq)” value in data set [1] (listed as nicotinamide) is “more closely molecularly matched to young control mice”. In data set [1] (setting [6]), the “number of DE genes, 4-month D2-Gpnmb+ vs. NAM” value turned out to be 83 and the “number of DE genes, 9-month D2-Gpnmb+ vs. NAM” value came out at 4437. In addition, the “nuclear diameter shrinkage (DAPI-labeled nuclei)” value in data set [2] (axotomized D2 retinas in culture, 5 days post-axotomy, NAM 100 mM and 500 mM) is reported as “most robust protection against nuclear shrinkage; also recorded: protects against cell shrinkage; also recorded: indistinguishable from uninjured, baseline controls”. In data set [2] (setting [7]), the “ganglion cell layer cell death / cell density” value is “attractive dose-response effect” and the “protective effect in retina tissue culture” value is reported as “robustly protected”. In addition, the IOP entry in the data set on DBA/2J (D2) mice (NAM 550 mg/kg/d) is listed as “did not alter IOP; also recorded: IOP was not altered”. In addition, the “degree of IOP elevation” value with DBA/2J (D2) mice (NAM 2000 mg/kg/d) is “lessens the degree of IOP elevation”. Moreover, in data set [3], the neural degeneration entry is on record as “reduces neural degeneration”. The “PARP activation / expression” value in the data set on PARP is “decreased PARP activation; also recorded: prevents PARP activation”. In addition, the “doses with an incidence of hepatotoxicity” value in data set [4] (humans, attributed to impurities in older preparations) is given as over 4 grams NAM per day. For the same compound, the “cases of jaundice reported” value in data set [4] (survey of 6000 patients on high doses) is 3. Also, the “RGC soma loss (RBPMS)” value in data set [5] is listed as “prevented; also recorded: protects from RGC soma loss; also recorded: prevent RGC soma loss”.

These data come from patent US12336986B2, “Treatment and prevention of ocular neurodegenerative disorder” (The Jackson Laboratory, priority 2015, dated 2025).
